Measured values taken from US9187515B2, “2′,4′-fluoro nucleosides for the treatment of HCV” (Idenix Pharmaceuticals, Inc., priority 2013, dated 2015).

Assays:
[1] = target: T1, wild-type HCV genotype 1b NS5B protein (recombinant HCV polymerase) (Hepatitis C virus genotype 1b, UniProt Q9WMX2); experiment: HCV polymerase enzyme assay, wild-type; assay type: biochemical
T1 construct: HCV genotype 1b NS5B protein were used to generate recombinant HCV polymerases (with a deletion of the 21 carboxy terminal amino acids); made in house
Source text: (§1) Test compounds in the form of nucleoside triphosphates were examined for inhibitory activity against purified HCV polymerase in a standard assay. Bacterial expression constructs encoding the approximately 65 kDa HCV genotype 1b NS5B protein were used to generate recombinant HCV polymerases (with a deletion of the 21 carboxy terminal amino acids). Both the wild-type genotype 1b protein and protein containing the S282T mutation were expressed and purified for use in the enzymatic activity assay.
(§2) The enzymatic activity assay measured the inhibitory effect of increasing concentrations of test compound on the incorporation of α-[^33P]-labeled nucleotide into trichloroacetic acid-precipitable material. Recombinant polymerase and synthetic RNA template were combined in reaction buffer containing ribonucleoside triphosphates, α-[^33P]-labeled nucleotide and eight concentrations of test compound in three-fold dilutions. […]
(§3) Reactions were terminated by the addition of ice-cold trichloroacetic acid and sodium pyrophosphate to promote precipitation of newly-synthesized ribonucleic acid. Precipitable material from the reactions was collected by filtration onto 96-well filter plates, washed extensively with water, and quantified by liquid scintillation.
(§4) The inhibitory activity of test compounds was determined by fitting results to dose-response curves using XLfit software.

[2] = target: T2, HCV genotype 1b NS5B protein containing the S282T mutation (Hepatitis C virus genotype 1b, UniProt Q9WMX2, S2701T); experiment: HCV polymerase enzyme assay, S282T mutant; assay type: biochemical; details: nucleoside triphosphate; S282T genotype 1b NS5B; 2 h at 30° C.
T2 construct: HCV genotype 1b NS5B protein were used to generate recombinant HCV polymerases (with a deletion of the 21 carboxy terminal amino acids); made in house
Source text: as §1, §2, §3, §4

[3] = Cytotoxicity evaluation, CellTiter-Blue Cell Viability Assay; assay type: cell-based; details: human, Zluc cells
[4] = tested on: HCV genotype 1b replicon in Huh-7-derived cell line (Zluc); experiment: HCV replicon assay (luciferase reporter); assay type: cell-based; details: Hepatitis C virus; Zluc cells, 72 hours of incubation
Method: Huh-7-derived cell line (Zluc) that harbors an HCV genotype 1b replicon and a luciferase reporter gene was grown in Dulbecco's Modified Eagle Medium (DMEM) supplemented with 10% fetal bovine serum, 2 mM GlutaMAX, 1% MEM nonessential amino acids, 100 IU/mL penicillin, 100 μg/mL streptomycin, and 0.5 mg/mL Geneticin® (G418). For dose response testing the cells were seeded in 96-well plates at 7.5×10^3 cells per well in a volume of 50 μL, and incubated at 37° C./5% CO2. Drug solutions were made up freshly in Huh-7 media as 2× stocks. Ten additional 5-fold dilutions were prepared from these stocks in DMEM without G418. At least three hours after Zluc cells were seeded, drug treatment was initiated by adding 50 μL of drug dilutions to the plates in duplicate. Final concentrations of drug ranged from 100 μM to 0.0000512 μM. Cells were then incubated at 37° C./5% CO2. Alternatively, compounds were tested at two concentrations (1 μM and 10 μM). […] For this, media was removed from the plates via gentle tapping. […] The plates were shaken gently for 3 min at room temperature and luminescence was measured on a Victor^3 V 1420 multilabel counter (Perkin Elmer) with a 1 second read time using a 700 nm cut-off filter. The EC50 values were calculated from dose response curves from the resulting best-fit equations determined by Microsoft Excel and XLfit 4.1 software. […]

Structure (SMILES) | IC50 [1] | IC50 [2] | CC50 at 72 h [3] | EC50 [4]
O=c1ccn([C@@H]2O[C@](F)(COP(=O)(O)OP(=O)(O)OP(=O)(O)O)[C@@H](O)[C@H]2F)c(=O)[nH]1 [Compound 201] | 0.25 to 1 µM | < 0.25 µM |  | 
Nc1ccn([C@@H]2O[C@](F)(CO)[C@@H](O)[C@H]2F)c(=O)n1 [Compound 105] |  |  | > 50 µM | 0.25 to 1 µM
Nc1ccn([C@@H]2O[C@](F)(COP(=O)(O)OP(=O)(O)OP(=O)(O)O)[C@@H](O)[C@H]2F)c(=O)n1 [Compound 205] | < 0.25 µM | < 0.25 µM |  | 
O=c1ccn([C@@H]2O[C@](F)(CO)[C@@H](O)[C@H]2F)c(=O)[nH]1 [Compound 101, 1-((2R,3R,4S,5S)-3,5-difluoro-4-hydroxy-5-(hydroxymethyl)tetrahydrofuran-2-yl)pyrimidine-2,4(1H,3H)-dione] |  |  | > 50 µM | > 10 µM
